These are literature values, as cited in patent EP0719130B1, “COMPLEX CALCIUM AND FLUORIDE CONTAINING MOUTH RINSES, DENTIFRICES, AND CHEWABLE TABLETS” (AMERICAN DENTAL ASSOCIATION HEALTH FOUNDATION, priority 1993, dated 1995).

For this data set the following is noted: buffer acid or salt.

In the case of tyrosine salts, the pK is 8.4.

For `O=S(=O)(O)CCN1CCN(CCO)CC1` [HEPES], the pK is on record as 7.4.

Regarding `OCC(O)CO` [glycerol], the pK was 14.15.
